# Experimental data from the supplement of paper PMC10307832.
# Compound: COc1cccc2c1C(=O)c1c(O)c3c(c(O)c1C2=O)C[C@@](O)(C(=O)CO)C[C@@H]3O[C@H]1C[C@H](N)[C@H](O)[C@H](C)O1 [Doxorubicin] + CS(=O)(=O)CCNCc1ccc(-c2ccc3ncnc(Nc4ccc(OCc5cccc(F)c5)c(Cl)c4)c3c2)o1 [Lapatinib] (partner 2 µM)
# Test: relative viability (nuclei count vs DMSO), 5 days (fraction); higher = more cells survive
# Details: first compound 0.001 µM
# Procedure, shortened: (§1)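 Lung cancer cell lines, seeded in 1536-well plates, were treated the following day by pin tool with a single drug or with five library-drug doses (not always all listed) in √10 steps on top of a fixed anchor-drug dose. Cells were fixed and nuclei stained in one step after 5 days, and nuclei were counted. Relative viability is the nuclei count for treated wells divided by that for vehicle wells, reported as medians of duplicate plates.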
row,Cell Line,relative viability
1,RERF-LC-KJ,0.905
2,NCI-H1651,0.784
3,EBC-1,0.236
4,NCI-H1734,1.07
5,NCI-H2009,0.912
6,NCI-H596,1.08
7,SK-LU-1,0.822
8,SW 1573,0.978
9,LCLC-97TM1,1.13
10,NCI-H661,0.506

# Same assay, conditions: first compound 0.003162 µM
row,Cell Line,relative viability
1,RERF-LC-KJ,0.817
2,NCI-H1651,0.729
3,EBC-1,0.21
4,NCI-H1734,1.06
5,NCI-H2009,0.245
6,NCI-H596,1.1
7,SK-LU-1,1.09
8,SW 1573,1.21
9,LCLC-97TM1,0.917
10,NCI-H661,0.515

# Same assay, conditions: first compound 0.01 µM
row,Cell Line,relative viability
1,RERF-LC-KJ,0.863
2,NCI-H1651,0.475
3,EBC-1,0.22
4,NCI-H1734,0.948
5,NCI-H2009,0.763
6,NCI-H596,1.05
7,SK-LU-1,0.669
8,SW 1573,1.15
9,LCLC-97TM1,0.847
10,NCI-H661,0.492

# Same assay, conditions: first compound 0.03162 µM
row,Cell Line,relative viability
1,RERF-LC-KJ,0.759
2,NCI-H1651,0.166
3,EBC-1,0.195
4,NCI-H1734,0.53
5,NCI-H2009,0.376
6,NCI-H596,0.943
7,SK-LU-1,0.523
8,SW 1573,0.75
9,LCLC-97TM1,0.63
10,NCI-H661,0.498

# Same assay, conditions: first compound 0.1 µM
row,Cell Line,relative viability
1,RERF-LC-KJ,0.815
2,NCI-H1651,0.129
3,EBC-1,0.181
4,NCI-H1734,0.466
5,NCI-H2009,0.283
6,NCI-H596,1.03
7,SK-LU-1,0.55
8,SW 1573,0.559
9,LCLC-97TM1,0.579
10,NCI-H661,0.493

# Compound: COC1=C(C=C(C=C1)C2=CC3=NC=CN3C(=N2)NC4=C(C=CC=N4)C(=O)N)OC [BAY61-3606] + CS(=O)(=O)N1CCN(Cc2cc3nc(-c4cccc5[nH]ncc45)nc(N4CCOCC4)c3s2)CC1 [Pictilisib] (partner 1 µM)
# Test: as above
# Details: first compound 0.02 µM
# Procedure, shortened: as §1
row,Cell Line,relative viability
1,RERF-LC-KJ,0.532
2,NCI-H1651,0.628
3,EBC-1,0.463
4,NCI-H1734,0.46
5,NCI-H2009,0.897
6,NCI-H596,0.41
7,SK-LU-1,0.628
8,SW 1573,0.476
9,LCLC-97TM1,0.272
10,NCI-H661,0.422
11,ChaGo-K-1,0.897
12,NCI-H441,0.561
13,LCLC-103H,0.646

# Same assay, conditions: first compound 0.06325 µM
row,Cell Line,relative viability
1,RERF-LC-KJ,0.411
2,NCI-H1651,0.689
3,EBC-1,0.359
4,NCI-H1734,0.459
5,NCI-H2009,0.849
6,NCI-H596,0.387
7,SK-LU-1,0.498
8,SW 1573,0.44
9,NCI-H661,0.415
10,ChaGo-K-1,0.591
11,NCI-H441,0.529
12,LCLC-103H,0.737

# Same assay, conditions: first compound 0.2 µM
row,Cell Line,relative viability
1,RERF-LC-KJ,0.59
2,NCI-H1651,0.623
3,EBC-1,0.404
4,NCI-H1734,0.485
5,NCI-H2009,0.851
6,NCI-H596,0.386
7,SK-LU-1,0.662
8,SW 1573,0.464
9,LCLC-97TM1,0.28
10,NCI-H661,0.376
11,ChaGo-K-1,0.708
12,NCI-H441,0.493
13,LCLC-103H,0.654

# Same assay, conditions: first compound 0.6325 µM
row,Cell Line,relative viability
1,RERF-LC-KJ,0.577
2,NCI-H1651,0.531
3,EBC-1,0.547
4,NCI-H1734,0.406
5,NCI-H2009,0.751
6,NCI-H596,0.416
7,SK-LU-1,0.515
8,SW 1573,0.514
9,LCLC-97TM1,0.178
10,NCI-H661,0.383
11,ChaGo-K-1,0.506
12,NCI-H441,0.475
13,LCLC-103H,0.542

# Same assay, conditions: first compound 2 µM
row,Cell Line,relative viability
1,RERF-LC-KJ,0.441
2,NCI-H1651,0.401
3,EBC-1,0.411
4,NCI-H1734,0.324
5,NCI-H2009,0.52
6,NCI-H596,0.408
7,SK-LU-1,0.428
8,SW 1573,0.367
9,LCLC-97TM1,0.179
10,NCI-H661,0.408
11,ChaGo-K-1,0.696
12,NCI-H441,0.282
13,LCLC-103H,0.646

# Compound: COC1=C(C=C(C=C1)C2=CC3=NC=CN3C(=N2)NC4=C(C=CC=N4)C(=O)N)OC [BAY61-3606]
# Test: relative viability (nuclei count vs DMSO), 5 days (fraction); higher = more cells survive
# Details: 0.02 µM
# Procedure, shortened: (§2)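 Viability is treated-well nuclei as a fraction of vehicle-well nuclei, reported as the median across plates. Before counting, lung cancer cell lines were kept overnight at 37 °C in 1536-well plates, pinned with five √10-spaced library-drug doses on vehicle-anchored plates, and left 5 days without medium change, then fixed, permeabilised and Hoechst-stained in one step, imaged at 4× and counted by MetaXpress. A plate passed only if control CV was below 25% and at least one doubling occurred.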
row,Cell Line,relative viability
1,NCI-H2342,0.966
2,NCI-H1623,0.892
3,RERF-LC-KJ,1.04
4,NCI-H1651,1.01
5,EBC-1,1.04
6,NCI-H1734,1.04
7,NCI-H2009,1.06
8,NCI-H596,0.96
9,SK-LU-1,1.08
10,SW 1573,1.04
11,LCLC-97TM1,1.06
12,NCI-H661,1.02
13,NCI-H1648,0.832
14,ChaGo-K-1,0.97
15,NCI-H522,0.961
16,SW 900,0.895
17,NCI-H441,1.12
18,LCLC-103H,1.07

# Same assay, conditions: 0.06325 µM
row,Cell Line,relative viability
1,NCI-H2342,1.02
2,NCI-H1623,0.891
3,RERF-LC-KJ,1.03
4,NCI-H1651,0.93
5,EBC-1,0.999
6,NCI-H1734,0.979
7,NCI-H2009,1.03
8,NCI-H596,0.96
9,SK-LU-1,1.04
10,SW 1573,1.03
11,LCLC-97TM1,1.07
12,NCI-H661,0.993
13,NCI-H1648,0.89
14,ChaGo-K-1,0.942
15,NCI-H522,0.907
16,SW 900,0.762
17,NCI-H441,1.15
18,LCLC-103H,0.992

# Same assay, conditions: 0.2 µM
row,Cell Line,relative viability
1,NCI-H2342,0.908
2,NCI-H1623,0.911
3,RERF-LC-KJ,0.93
4,NCI-H1651,0.986
5,EBC-1,0.953
6,NCI-H1734,0.746
7,NCI-H2009,0.997
8,NCI-H596,1.07
9,SK-LU-1,1.04
10,SW 1573,0.905
11,LCLC-97TM1,1
12,NCI-H661,0.991
13,NCI-H1648,1.16
14,ChaGo-K-1,0.918
15,NCI-H522,0.953
16,SW 900,0.678
17,NCI-H441,1.01
18,LCLC-103H,0.993

# Same assay, conditions: 0.6325 µM
row,Cell Line,relative viability
1,NCI-H2342,0.966
2,NCI-H1623,0.953
3,RERF-LC-KJ,1.06
4,NCI-H1651,1.01
5,EBC-1,1.04
6,NCI-H1734,0.935
7,NCI-H2009,0.989
8,NCI-H596,1.15
9,SK-LU-1,1.06
10,SW 1573,1
11,LCLC-97TM1,0.892
12,NCI-H661,0.963
13,NCI-H1648,0.74
14,ChaGo-K-1,0.949
15,NCI-H522,0.954
16,SW 900,0.937
17,NCI-H441,1.15
18,LCLC-103H,1.03

# Same assay, conditions: 2 µM
row,Cell Line,relative viability
1,NCI-H2342,1.15
2,NCI-H1623,0.927
3,RERF-LC-KJ,0.791
4,NCI-H1651,0.883
5,EBC-1,0.888
6,NCI-H1734,0.602
7,NCI-H2009,0.894
8,NCI-H596,0.86
9,SK-LU-1,0.694
10,SW 1573,0.659
11,LCLC-97TM1,1.01
12,NCI-H661,0.976
13,NCI-H1648,0.804
14,ChaGo-K-1,0.945
15,NCI-H522,0.933
16,SW 900,0.813
17,NCI-H441,0.682
18,LCLC-103H,0.987

# Compound: COc1cccc2c1C(=O)c1c(O)c3c(c(O)c1C2=O)C[C@@](O)(C(=O)CO)C[C@@H]3O[C@H]1C[C@H](N)[C@H](O)[C@H](C)O1 [Doxorubicin]
# Test: as above
# Details: 0.001 µM
# Procedure, shortened: as §2
row,Cell Line,relative viability
1,NCI-H2342,0.938
2,NCI-H1623,0.934
3,RERF-LC-KJ,0.986
4,NCI-H1651,0.949
5,EBC-1,1
6,NCI-H1734,0.923
7,NCI-H2009,0.99
8,NCI-H596,0.97
9,SK-LU-1,1
10,SW 1573,0.876
11,LCLC-97TM1,0.909
12,NCI-H661,1.01
13,NCI-H1648,0.898
14,ChaGo-K-1,1.06
15,NCI-H522,0.741
16,SW 900,0.671
17,NCI-H441,0.687
18,LCLC-103H,0.966

# Same assay, conditions: 0.003162 µM
row,Cell Line,relative viability
1,NCI-H2342,1.03
2,NCI-H1623,0.968
3,RERF-LC-KJ,1.04
4,NCI-H1651,0.96
5,EBC-1,1.09
6,NCI-H1734,1.11
7,NCI-H2009,1.01
8,NCI-H596,1.16
9,SK-LU-1,1.05
10,SW 1573,0.914
11,LCLC-97TM1,1.11
12,NCI-H661,1.06
13,NCI-H1648,1.07
14,ChaGo-K-1,1.09
15,NCI-H522,0.938
16,SW 900,0.992
17,NCI-H441,0.957
18,LCLC-103H,1.04

# Same assay, conditions: 0.01 µM
row,Cell Line,relative viability
1,NCI-H2342,0.929
2,NCI-H1623,0.965
3,RERF-LC-KJ,0.986
4,NCI-H1651,0.925
5,EBC-1,1.01
6,NCI-H1734,0.876
7,NCI-H2009,0.94
8,NCI-H596,1.08
9,SK-LU-1,0.987
10,SW 1573,0.539
11,LCLC-97TM1,0.909
12,NCI-H661,0.957
13,NCI-H1648,0.719
14,ChaGo-K-1,0.923
15,NCI-H522,0.988
16,SW 900,0.774
17,NCI-H441,0.677
18,LCLC-103H,0.981

# Same assay, conditions: 0.03162 µM
row,Cell Line,relative viability
1,NCI-H2342,0.763
2,NCI-H1623,0.947
3,RERF-LC-KJ,0.713
4,NCI-H1651,0.642
5,EBC-1,0.702
6,NCI-H1734,0.669
7,NCI-H2009,0.843
8,NCI-H596,0.853
9,SK-LU-1,0.798
10,SW 1573,0.364
11,LCLC-97TM1,0.822
12,NCI-H661,0.853
13,NCI-H1648,0.864
14,ChaGo-K-1,0.892
15,NCI-H522,0.838
16,SW 900,0.665
17,NCI-H441,0.359
18,LCLC-103H,1.02

# Same assay, conditions: 0.1 µM
row,Cell Line,relative viability
1,NCI-H2342,0.877
2,NCI-H1623,0.992
3,RERF-LC-KJ,0.904
4,NCI-H1651,0.635
5,EBC-1,0.534
6,NCI-H1734,0.608
7,NCI-H2009,0.504
8,NCI-H596,0.948
9,SK-LU-1,0.654
10,SW 1573,0.292
11,LCLC-97TM1,0.749
12,NCI-H661,0.634
13,NCI-H1648,0.882
14,ChaGo-K-1,0.563
15,NCI-H522,0.894
16,SW 900,0.404
17,NCI-H441,0.326
18,LCLC-103H,0.957
